{"source": "paper PMC11876671", "about": "“Investigating blood–brain barrier penetration and neurotoxicity of natural products for central nervous system drug development” (Scientific Reports, 2025)", "key": {"[1]": {"settings": "for PAMPA-BBB Pe(10^-6 cm/sec): Table S3: compounds exhibiting low PAMPA-BBB permeability"}, "in vitro": {"experiment": "in vitro", "settings": "PAMPA, PAMPA-BBB Pe"}, "[2]": {"system": "GFP-labeled iPSC-derived human cortical glutamatergic neurons", "experiment": "cells", "assay_type": "cell-based", "settings": "for AC50: Homo sapiens, Neuron, Table S1, total neurite length, 48 hr, head prints no unit, µM per Table 1 and Fig. 5, read-out: TNL AC50 (48 hr)"}, "[3]": {"settings": "Table S2: compounds exhibiting moderate to high PAMPA-BBB permeability"}, "[4]": {"settings": "Table S1, 60 min, room temperature, 0.05 mM"}}, "note": "Where a name gives a salt, the structure may show the parent alone. Read-outs that look alike come from different tables or passages of the source.", "data": [{"compound": "CC(=O)NCCc1c[nH]c2ccccc12", "note": "[NCGC00260786-01]", "values": [{"measurement": "PAMPA-BBB Pe(10^-6 cm/sec)", "setting": "[1]", "result": "5.7 10^-6 cm/sec"}]}, {"compound": "CN(N=O)c1cc(O)ccc1O", "note": "[NCGC00261088-01]", "values": [{"measurement": "PAMPA-BBB Pe(10^-6 cm/sec)", "setting": "[1]", "result": "<1 10^-6 cm/sec"}]}, {"compound": "COc1cc(C(O)CO)ccc1OS(=O)(=O)[O-].[K+]", "note": "(centres unmarked) [NCGC00261311-01]", "values": [{"measurement": "PAMPA-BBB Pe(10^-6 cm/sec)", "setting": "[1]", "result": "<1 10^-6 cm/sec"}]}, {"compound": "C=C/C(C)=C/[C@@]1(C)SC(=O)C(C)=C1O", "note": "[NCGC00261593-01]", "values": [{"measurement": "PAMPA-BBB Pe(10^-6 cm/sec)", "setting": "[1]", "result": "<1 10^-6 cm/sec"}]}, {"compound": "c1ccc2c3c([nH]c2c1)[C@H]1[C@@H]2CC[C@@H]([C@@H]4CCCN[C@@H]42)N1CC3", "note": "[NCGC00262532-02]", "values": [{"measurement": "PAMPA-BBB Pe(10^-6 cm/sec)", "setting": "[1]", "result": "<1 10^-6 cm/sec"}]}, {"compound": "C=CC(O)C1OC1C=CC1OC1C(C)O", "note": "(centres unmarked) [NCGC00263647-01]", "values": [{"measurement": "PAMPA-BBB Pe(10^-6 cm/sec)", "setting": "[1]", "result": "<1 10^-6 cm/sec"}]}, {"compound": "O=C(OC[C@H]1O[C@H](OC(=O)c2cc(O)c(O)c(OC(=O)c3cc(O)c(O)c(O)c3)c2)[C@H](OC(=O)c2cc(O)c(O)c(OC(=O)c3cc(O)c(O)c(O)c3)c2)[C@@H](OC(=O)c2cc(O)c(O)c(OC(=O)c3cc(O)c(O)c(O)c3)c2)[C@@H]1OC(=O)c1cc(O)c(O)c(OC(=O)c2cc(O)c(O)c(O)c2)c1)c1cc(O)c(O)c(OC(=O)c2cc(O)c(O)c(O)c2)c1", "note": "[NCGC00263877-02]", "values": [{"measurement": "PAMPA-BBB Pe(10^-6 cm/sec)", "setting": "[1]", "result": "<1 10^-6 cm/sec"}]}, {"compound": "COc1ccc(-c2cc(=O)c3c(O)cc(OC)c(OC)c3o2)c(OC)c1", "note": "[NCGC00263973-02]", "values": [{"measurement": "PAMPA-BBB Pe", "setting": "[1]; [3]", "result": "201 10^-6 cm/sec"}]}, {"compound": "CC(=O)NCCc1ccc(O)c(-c2c(O)c(O)c3c(c2O)C(=O)c2c(cc(O)c(C(=O)O)c2C(=O)O)C3=O)c1", "note": "[NCGC00263986-01]", "values": [{"measurement": "PAMPA-BBB Pe(10^-6 cm/sec)", "setting": "[1]", "result": "<1 10^-6 cm/sec"}]}, {"compound": "COC(=O)[C@H](Cc1ccccc1)NC(=O)/C(=C1\\OC(=O)C(c2ccccc2)=C1O)c1ccccc1", "note": "[NCGC00263991-01]", "values": [{"measurement": "PAMPA-BBB Pe(10^-6 cm/sec)", "setting": "[1]", "result": "<1 10^-6 cm/sec"}]}, {"compound": "O=C1CC[C@]23/C=C/C(=O)NCCCCNCCCNC(=O)/C=C/c4ccc(c2c4)O[C@@H]3C1", "note": "[NCGC00263997-01]", "values": [{"measurement": "PAMPA-BBB Pe(10^-6 cm/sec)", "setting": "[1]", "result": "<1 10^-6 cm/sec"}]}, {"compound": "COC(=O)C[C@H]1C2(C)C[C@]34O[C@@]5(C)O[C@@]6([C@H](OC(C)=O)C(OC(C)=O)[C@]7(C)C(/C(=C(/O)C(C)C)C(=O)O[C@H]7c7ccoc7)[C@@]6(O5)[C@H](OC(C)=O)[C@@]3(O)C2OC(=O)C(C)C)[C@]14C", "note": "(some centres unmarked) [NCGC00264007-02]", "values": [{"measurement": "PAMPA-BBB Pe", "setting": "[1]; [3]", "result": "28 10^-6 cm/sec"}]}, {"compound": "COc1ccc(-c2oc3cc(OC)c(OC)c(OC)c3c(=O)c2OC)cc1", "note": "[NCGC00264011-02]", "values": [{"measurement": "PAMPA-BBB Pe", "setting": "[1]; [3]", "result": "308 10^-6 cm/sec"}]}, {"compound": "C[N+]12CC[C@@]34c5ccccc5N5C(=O)C[C@@H]6OCC=C(C1)[C@H](CC32)[C@@H]6C54", "note": "(some centres unmarked) [NCGC00264058-02]", "values": [{"measurement": "PAMPA-BBB Pe(10^-6 cm/sec)", "setting": "[1]", "result": "<1 10^-6 cm/sec"}]}, {"compound": "COc1cc(/C=C2/C(=O)Nc3ccccc32)cc(OC)c1O", "note": "[NCGC00343740-01]", "values": [{"measurement": "PAMPA-BBB Pe(10^-6 cm/sec)", "setting": "[1]", "result": "4.8 10^-6 cm/sec"}]}, {"compound": "COC(=O)C1=CC[C@@]23CC[C@@H]([C@@](C)(/C=C/C=C(\\C)C(=O)O)OC2=O)[C@@]3(OC(C)=O)CC1", "note": "[NCGC00344122-04]", "values": [{"measurement": "PAMPA-BBB Pe(10^-6 cm/sec)", "setting": "[1]", "result": "<1 10^-6 cm/sec"}]}, {"compound": "O=C1c2ccccc2-[n+]2ccc3c([nH]c4ccccc43)c21", "note": "[NCGC00346951-03]", "values": [{"measurement": "PAMPA-BBB Pe(10^-6 cm/sec)", "setting": "[1]", "result": "<1 10^-6 cm/sec"}]}, {"compound": "CCCc1cc(=O)c2ccccc2n1C", "note": "[NCGC00351153-01]", "values": [{"measurement": "PAMPA-BBB Pe", "setting": "[1]; [3]", "result": "137 10^-6 cm/sec"}]}, {"compound": "COc1ccccc1O[C@@H]1O[C@H](CO)[C@H](O)[C@H](O)[C@H]1O", "note": "[NCGC00351878-01]", "values": [{"measurement": "PAMPA-BBB Pe(10^-6 cm/sec)", "setting": "[1]", "result": "1.5 10^-6 cm/sec"}]}, {"compound": "OC[C@H]1O[C@@H](Oc2cccc3ccccc23)[C@H](O)[C@@H](O)[C@H]1O", "note": "[NCGC00351880-01]", "values": [{"measurement": "PAMPA-BBB Pe(10^-6 cm/sec)", "setting": "[1]", "result": "<1 10^-6 cm/sec"}]}, {"compound": "OC[C@H]1O[C@@H](n2cnc3cncnc32)[C@H](O)[C@@H]1O", "note": "[NEBULARINE¦NEBULARINE]", "values": [{"measurement": "PAMPA-BBB Pe(10^-6 cm/sec)", "setting": "[1]", "result": "<1 10^-6 cm/sec"}]}, {"compound": "COc1ccc2c(c1OC)C(=O)O[C@@H]2[C@H]1c2c(cc3c(c2OC)OCO3)CCN1C", "note": "[NOSCAPINE HYDROCHLORIDE]", "values": [{"measurement": "PAMPA-BBB Pe", "setting": "[1]; PAMPA", "result": "75 10^-6 cm/sec"}]}, {"compound": "O=C(/C=C/c1ccc(O)c(O)c1)OCCc1ccccc1", "note": "[PHENETHYL CAFFEATE]", "values": [{"measurement": "PAMPA-BBB Pe", "setting": "[1]; [3]", "result": ">1000 10^-6 cm/sec"}]}, {"compound": "c1cc2c(cc1[C@H]1OC[C@H]3[C@@H]1CO[C@@H]3c1ccc3c(c1)OCO3)OCO2", "note": "[Sesamin]", "values": [{"measurement": "Papp", "setting": "in vitro; [4]", "result": 211, "unit": "×10⁻⁶ cm/s"}, {"measurement": "Papp", "setting": "in vitro; [3]", "result": 211, "unit": "×10⁻⁶ cm/s"}, {"measurement": "AC50", "setting": "[2]", "result": 14.2, "unit": "µM"}]}, {"compound": "O=c1c2ccccc2oc2ccccc12", "note": "[Xanthenone]", "values": [{"measurement": "Papp", "setting": "in vitro; [4]", "result": 173, "unit": "×10⁻⁶ cm/s"}, {"measurement": "AC50", "setting": "[2]", "result": 18.6, "unit": "µM"}]}, {"compound": "Cn1cccc1-c1cccnc1", "note": "[beta-NICOTYRINE]", "values": [{"measurement": "Papp", "setting": "in vitro; [4]", "result": 102, "unit": "×10⁻⁶ cm/s"}, {"measurement": "AC50", "setting": "[2]", "result": 8.46, "unit": "µM"}]}, {"compound": "Cn1c(=O)c2c(ncn2C)n(C)c1=O", "note": "[caffeine, reference compound]", "values": [{"measurement": "PAMPA-BBB permeability category", "setting": "[1]; PAMPA", "result": "low permeability"}]}, {"compound": "NC(=O)N1c2ccccc2C=Cc2ccccc21", "note": "[carbamazepine, reference compound]", "values": [{"measurement": "PAMPA-BBB permeability category", "setting": "[1]; PAMPA", "result": "moderate permeability"}]}, {"compound": "CC(=O)[C@H]1CC[C@H]2[C@@H]3CCC4=CC(=O)CC[C@]4(C)[C@H]3CC[C@]12C", "note": "[progesterone, reference compound]", "values": [{"measurement": "PAMPA-BBB permeability category", "setting": "[1]; category in words", "result": "high permeability"}]}, {"compound": "C=C(C)[C@H]1Cc2c(ccc3c2O[C@@H]2COc4cc(OC)c(OC)cc4[C@@H]2C3=O)O1", "note": "[rotenone, reference compound]", "values": [{"measurement": "inhibition of cortical neurite outgrowth (total neurite length)", "setting": "[2]; 24 and 48 h treatment, in words", "result": "inhibited cortical neurite outgrowth in a concentration-dependent manner"}]}, {"compound": "\\LYCORINE HYDROCHLORIDE", "values": [{"measurement": "PAMPA-BBB Pe(10^-6 cm/sec)", "setting": "[1]", "result": "3.2 10^-6 cm/sec"}]}]}
